Laboratory results from PMC10384936, “Identification and Biological Characterization of the Pyrazolo[3,4-d]pyrimidine Derivative SI388 Active as Src Inhibitor” (Pharmaceuticals, 2023).
Blank lines part the entries; values can stand above or below the molecule they belong to.

Legend:
[1] = molecular target: T1, Abl (Homo sapiens, UniProt P00519); assay: Abl enzymatic assay (ADP-Glo kinase assay); assay type: biochemical; conditions: for Ki: mean of at least three experiments, 30 μM ATP, read-out: Bcr-Abl Ki
T1 construct: purchased Merck-Millipore
Procedure: (§1) Src, Fyn, and Abl were purchased from Merck-Millipore. Reactions were performed according to the manufacturer’s instructions with minor modifications. All substrates were used at least at twice the concentration of apparent Km. In detail: Src reactions were performed using 500 μM Src-peptide (KVEKIGEGTYGVVYK), 100 μM ATP, and 0.00087% NP-40; Fyn reactions were performed using 360 μM Src-peptide (KVEKIGEGTYGVVYK), 200 μM ATP, and 0.0026% NP-40; Abl reactions were performed using 50 μM abltide (EAIYAAPFAKKK), 30 μM ATP, and 0.00087% NP-40. All reactions were performed using 10–50 ng of enzyme and 10% DMSO in 10 μL of kinase buffer (8 mM MOPS-NaOH pH7.0, 0.2 mM EDTA, 10 mM MgAc) at 30 °C for 10 min.
(§2) To avoid peptide adsorbing to the plastic surface, protein low-binding tubes were used. ADP-Glo kinase assay (Promega) was then used to detect kinase activity according to the manufacturer’s instructions with minor modifications. In detail, reactions were transferred to white 384 well-plates and stopped by adding 10 µL of ADP-Glo reagent (Promega) for 50 min at room temperature. A total of 20 μL of detection reagent (Promega) was then added for 30 min and the reaction read using a GloMax Discover microplate reader (Promega). Data were plotted using GraphPad Prism 5.0. IC50 values were obtained according to Equation (1):v = V/{1 + (I/IC50)} (1) where v is the measured reaction velocity, V is the apparent maximal velocity in the absence of inhibitor, I is the inhibitor concentration, and IC50 is the 50% inhibitory dose. Compounds tested were assumed to act as fully ATP-competitive inhibitors. Therefore, Ki values were calculated according to Equation (2):Ki = IC50/(1+ […]) (2) where Ki is the affinity of the inhibitor to the enzyme, S is the ATP concentration, and Km is the affinity of ATP calculated according to the Michaelis–Menten equation.

[2] = tested on: osteosarcoma; design: method as in PMID 17929792; conditions: cited from earlier work
[3] = molecular target: Bcr-Abl; design: method as in PMID 23746084, PMID 28650650, PMID 25469771, PMID 21443205, PMID 17929792; conditions: in-house lead compounds, Figure 1; cited from earlier work
[4] = molecular target: T2, Src (Homo sapiens, UniProt P12931); assay: Src enzymatic assay (ADP-Glo kinase assay); assay type: biochemical; conditions: for Ki: mean of at least three experiments, 100 μM ATP
T2 construct: purchased Merck-Millipore
Procedure: as §1, §2

[5] = tested on: 32D-T315I CML cells; conditions: mice inoculated with 32D-T315I CML cells; cited from earlier work
[6] = tested on: NB; design: method as in PMID 28650650, PMID 25469771; conditions: cited from earlier work
[7] = tested on: GBM; design: method as in PMID 28650650, PMID 25469771; conditions: cited from earlier work
[8] = tested on: Src phosphorylation on Tyr416 in U251 cells; assay: Immunoblotting of pY416-Src in U251 cells; assay type: cell-based; conditions: 10 nM and 1 µM, 24 h, vs DMSO
Procedure: Dasatinib (Sigma Aldrich, DAS, Merck Millipore, Burlington, MA, USA), SI388 and SI83 were used at different concentration (10 nM, 1 µM or 25 µM) for 24 h upon serum deprivation. DMSO (Sigma Aldrich) was used as the control.
(§3) Cell extracts were prepared in RIPA (50 mM Tris-HCl pH 8.0, 150 mM NaCl, 1% NP40, 1 mM EGTA, 1 mM EDTA, 0.25% sodium deoxycholate) or IP buffer (50 mM Tris–HCl pH 7.5, 250 mM NaCl, 1% NP-40, 5 mM EDTA, 5 mM EGTA) supplemented with protease and phosphatase inhibitors (Roche Diagnostic, Mannheim, Germany). For immunoblotting, 25–30 µg of protein was separated by sodium dodecyl sulfate (SDS) polyacrylamide gel electrophoresis (PAGE), blotted onto nitrocellulose membrane, and detected with specific antibodies.

[9] = tested on: Src phosphorylation on Tyr416 in GBMSC83 cells; assay: Immunoblotting of pY416-Src in GBMSC83 cells; assay type: cell-based; conditions: 1 µM, 24 h
Procedure: as §3

[10] = molecular target: T3, Fyn (Homo sapiens, UniProt P06241); assay: Fyn enzymatic assay (ADP-Glo kinase assay); assay type: biochemical
T3 construct: purchased Merck-Millipore
Procedure: as §1, §2

[11] = tested on: GBMSC83 cells; assay: Cell death analysis, Annexin V-PI cytofluorimetry after IR, GBMSC83; assay type: cell-based; conditions: 1 µM pre-treatment 24 h, IR 10 Gy, 48 h after IR, vs control
Procedure: GBMSC83 cells were pretreated with 1 µM SI388 or 1 µM DAS, or DMSO as a control, for 24 h and then irradiated (10 Gy). After 48 h from IR, cytofluorimetric analysis of AnnexinV-PI staining was performed.
1 × 10^6 cells were analyzed for cell death 48 h from ionizing radiation (10 Gy) upon staining with Annexin V-APC-propidium iodide (PI) kit, according to manufacturer instructions (eBioscience™ Annexin V apoptosis detection kits, ThermoFisher Scientific, Waltham, MA, USA). Unstained samples were used as the control. CytoFLEX S (Beckman Coulter, Milan, Italy) instrument was used to quantify the double staining. Quality control was evaluated using CytoFLEX Daily QC Fluorospheres (Beckman Coulter). CytExpert version 2.2 software (Beckman Coulter) was used to analyze FCS files. Dead cells were graphed as fold change to control conditions.

[12] = tested on: T98G cells; assay: MTS assay after ionizing radiation, T98G; assay type: cell-based; conditions: 1 µM pre-treatment 24 h, IR 10 Gy, 48 h after IR, statistically significant
Procedure: (§4) To this aim, T98G and U251 cells were pre-incubated or not with SI388 for 24 h and then irradiated (10 Gy).
(§5) Cells were plated in 96 multiwells (1000 cells/well) in 100 µL of the complete medium. The following day, after 24 h of starvation, the cells were treated with DMSO, dasatinib or SI388 at different concentrations (10 nM, 1 µM, 25 µM). After 72 h, cells were treated with tetrazolium (Promega) for 1–2 h. The quantity of formazan product is directly proportional to the number of living cells in the culture. The plate is then read with a plate reader measuring the absorbance of 490 nm for the different conditions.

[13] = tested on: T98G cells; assay: MTS cell viability assay, T98G; assay type: cell-based; conditions: 72 h, 10 nM, 1 µM, 25 µM
Procedure: (§6) Next, the ability of SI388 to inhibit cell viability was evaluated using an MTS assay.
as §5

[14] = tested on: GBMSC83 cells; assay: Neurosphere formation, cell counting and sphere size, GBMSC83; assay type: cell-based; conditions: 1 µM, 72 h, vs control
Procedure: GBMSC83 cells were seeded at the density of 1 × 10^4 cells/well in a 96-well ultralow attachment plate, and the following day they were treated with SI388 1 µM or dasatinib 1 µM. After 72 h from treatment, cells were stained with Hoechst 33,342 (Thermo Fisher Scientific) and images were acquired with Fluorescence microscopy (ZEISS) and processed with Fiji version 2.3. Hoechst positive nuclei were counted by particle detection instrument of ComDet Plugin of Fiji. The bright fields were acquired and processed by Cell Profiler version 2.1.1 to measure spheres’ diameter and reported as the fold change from the control condition.

[15] = tested on: U251 cells; assay: MTS assay after ionizing radiation, U251; assay type: cell-based; conditions: 1 µM pre-treatment 24 h, IR 10 Gy, 48 h after IR, not statistically significant
Procedure: as §4, §5

[16] = tested on: U251 cells; assay: MTS cell viability assay, U251; assay type: cell-based; conditions: 72 h, 10 nM, 1 µM, 25 µM
Procedure: as §6, §5

[17] = tested on: T98G cells; assay: Clonogenic assay, T98G; assay type: cell-based; conditions: 10 nM, 1 µM, 25 µM for 24 h, colonies after 15 days
Procedure: (§7) To further characterize the ability of SI388 to inhibit tumor growth, we performed clonogenic assays using T98G and U251 cell lines. Cells were starved and treated for 24 h with increasing concentration (10 nM, 1 µM, and 25 µM) of SI388 or DAS. The ability of single cells to proliferate and produce colonies was evaluated after 15 days, both in control conditions (treated with DMSO) and after treatment with different Src inhibitors.
(§8) For colony formation, control and irradiated (5 Gy) cells were seeded at the concentration of 1000 cells/dish in 6-well culture plates and incubated at 37 °C, 5% CO2 for 10–15 days.
(§9) Crystal violet solution (10% (v/v) methanol and 0.5% Crystal Violet) was used to fix and stain colonies, upon 20 min incubation. The stained colonies (>50 cells) were counted under a microscope or using Image “Colonyarea” plugin. Data were expressed as the mean and SD of three independent experiments.

[18] = tested on: U251 cells; assay: Clonogenic assay, U251; assay type: cell-based; conditions: 10 nM, 1 µM, 25 µM for 24 h, colonies after 15 days
Procedure: as §7, §8, §9

T1 sequence (P00519 whole entry, species assumed): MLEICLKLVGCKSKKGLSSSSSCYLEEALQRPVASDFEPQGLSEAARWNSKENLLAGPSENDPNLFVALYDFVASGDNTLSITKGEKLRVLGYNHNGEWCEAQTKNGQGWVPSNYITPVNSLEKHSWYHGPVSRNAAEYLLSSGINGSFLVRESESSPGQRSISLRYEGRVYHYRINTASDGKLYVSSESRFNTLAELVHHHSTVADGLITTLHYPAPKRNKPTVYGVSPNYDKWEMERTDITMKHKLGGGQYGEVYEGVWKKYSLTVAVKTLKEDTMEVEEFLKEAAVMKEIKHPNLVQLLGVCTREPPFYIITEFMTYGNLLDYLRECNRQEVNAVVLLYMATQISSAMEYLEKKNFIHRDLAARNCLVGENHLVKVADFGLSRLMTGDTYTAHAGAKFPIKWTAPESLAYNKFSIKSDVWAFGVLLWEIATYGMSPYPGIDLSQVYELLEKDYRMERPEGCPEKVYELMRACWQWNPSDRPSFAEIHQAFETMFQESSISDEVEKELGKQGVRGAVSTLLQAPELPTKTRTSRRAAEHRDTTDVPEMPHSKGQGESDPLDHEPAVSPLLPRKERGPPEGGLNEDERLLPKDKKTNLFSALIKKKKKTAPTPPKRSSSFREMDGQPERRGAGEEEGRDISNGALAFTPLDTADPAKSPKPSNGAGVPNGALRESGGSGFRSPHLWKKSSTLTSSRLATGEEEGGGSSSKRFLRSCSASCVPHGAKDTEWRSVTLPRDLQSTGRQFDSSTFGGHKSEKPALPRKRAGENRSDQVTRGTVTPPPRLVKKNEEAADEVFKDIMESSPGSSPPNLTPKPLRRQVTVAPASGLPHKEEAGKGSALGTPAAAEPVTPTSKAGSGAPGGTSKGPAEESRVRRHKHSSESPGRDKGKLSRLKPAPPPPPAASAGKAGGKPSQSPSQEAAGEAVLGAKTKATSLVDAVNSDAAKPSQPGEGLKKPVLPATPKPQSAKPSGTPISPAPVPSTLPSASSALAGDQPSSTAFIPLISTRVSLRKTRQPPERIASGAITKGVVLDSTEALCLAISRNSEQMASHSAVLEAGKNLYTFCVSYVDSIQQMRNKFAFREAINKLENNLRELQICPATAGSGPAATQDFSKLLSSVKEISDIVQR
T2 sequence (P12931 whole entry, species assumed): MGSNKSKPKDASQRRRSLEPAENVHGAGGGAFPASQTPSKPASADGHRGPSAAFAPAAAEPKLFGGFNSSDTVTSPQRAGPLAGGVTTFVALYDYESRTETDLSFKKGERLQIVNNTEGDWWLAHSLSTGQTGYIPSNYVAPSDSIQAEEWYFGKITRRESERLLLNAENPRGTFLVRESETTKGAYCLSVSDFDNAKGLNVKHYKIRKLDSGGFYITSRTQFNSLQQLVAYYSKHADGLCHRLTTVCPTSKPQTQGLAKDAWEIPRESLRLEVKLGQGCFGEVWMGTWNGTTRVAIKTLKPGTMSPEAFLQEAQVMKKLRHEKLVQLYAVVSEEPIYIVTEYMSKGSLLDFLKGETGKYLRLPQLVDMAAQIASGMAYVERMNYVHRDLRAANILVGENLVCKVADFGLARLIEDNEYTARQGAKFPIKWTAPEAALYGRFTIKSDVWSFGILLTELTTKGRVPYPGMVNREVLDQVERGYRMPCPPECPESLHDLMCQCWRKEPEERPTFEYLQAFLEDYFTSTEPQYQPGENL
T3 sequence (P06241 whole entry, species assumed): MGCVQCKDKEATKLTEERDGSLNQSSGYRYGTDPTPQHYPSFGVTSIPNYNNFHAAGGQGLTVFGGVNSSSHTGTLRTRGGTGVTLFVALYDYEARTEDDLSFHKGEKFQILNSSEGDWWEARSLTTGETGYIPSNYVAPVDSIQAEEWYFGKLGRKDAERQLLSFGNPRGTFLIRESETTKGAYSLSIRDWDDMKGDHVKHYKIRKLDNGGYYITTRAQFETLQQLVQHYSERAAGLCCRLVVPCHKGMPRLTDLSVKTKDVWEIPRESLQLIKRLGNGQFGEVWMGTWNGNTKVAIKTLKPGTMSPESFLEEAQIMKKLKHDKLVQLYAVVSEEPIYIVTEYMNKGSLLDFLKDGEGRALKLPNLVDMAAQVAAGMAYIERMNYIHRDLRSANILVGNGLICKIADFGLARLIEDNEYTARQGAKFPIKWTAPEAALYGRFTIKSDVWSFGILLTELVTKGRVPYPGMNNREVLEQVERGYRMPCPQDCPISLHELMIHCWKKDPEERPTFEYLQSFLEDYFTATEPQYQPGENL

- Ki [1]: 600 nM
- Ki [4]: 600 nM
SMILES: CSc1nc(Nc2cccc(Cl)c2)c2cnn(CC(Cl)c3ccccc3)c2n1 (stereo not shown) [1a, reference compound]
- Activity in xenograft mouse model of osteosarcoma [2]: active
- Ki [3]: 600 nM

SMILES: ClC(Cn1ncc2c(Nc3ccccc3)ncnc21)c1ccc(Br)cc1 (stereo not shown) [1b]
- Reduction of tumor volume [5]: more than 50%

SMILES: ClC(Cn1ncc2c(Nc3cccc(Br)c3)nc(SCCN3CCOCC3)nc21)c1ccccc1 (stereo not shown) [1c]
- Activity in in vivo model of NB [6]: showed activity
- Ki [3]: 120 nM
- Activity in in vivo model of GBM [7]: showed activity

- inhibition at 10 µM ([1]; 10 µM): 72%
- Ki [1]: 450 ± 290 nM
- inhibition at 10 µM ([10]; 10 µM): 90.7%
- Ki ([10]; mean of at least three experiments, 200 μM ATP): 419 ± 75 nM
- inhibition at 10 µM ([4]; 10 µM): 90%
- Ki [4]: 423 ± 93 nM
SMILES: CSc1nc(Nc2ccccc2Cl)c2cnn(CC(Cl)c3ccccc3)c2n1 (stereo not shown) [2a, 1-(2-Chloro-2-phenylethyl)-N-(2-chlorophenyl)-6-(methylthio)-1H-pyrazolo[3,4-d]pyrimidin-4-amine]
- Src phosphorylation on Tyr416 (pY416-Src) [8]: reduction in Src phosphorylation on Tyr416
- Phosphorylation of Src on Tyr416 [9]: significant reduction in phosphorylation of Src on Tyr416
- Percentage of cell death after IR (AnnexinV-PI) [11]: significantly increased the percentage of cell death
- Sensitivity to IR (inhibition of cell viability, MTS) [12]: increases the sensitivity to IR
- Cell viability (MTS) [13]: significantly impaired cell viability
- Mean neurosphere diameter [14]: overall reduced diameter of the spheres
- Number of cells per sphere [14]: reduced average number of cells per sphere
- Sensitivity to IR (inhibition of cell viability, MTS) [15]: increases the sensitivity to IR
- Cell viability (MTS) [16]: significantly impaired cell viability
- Colony formation (cell growth and proliferation) [17]: impaired cell growth and proliferation in a dose-dependent manner
- Colony formation (cell growth and proliferation) [18]: impaired cell growth and proliferation in a dose-dependent manner
